In US6924314B2, “Compounds for the treatment of metabolic disorders” (Wellstat Therapeutics Corporation, priority 2001, dated 2005):

Columns and labels:
[1] = system: ob/ob obese diabetic mice; experiment: Acute hypoglycemic effect in ob/ob obese diabetic mice: Expt 2; assay type: in vivo; details: single oral dose 250 mg/kg; for change in vivo at 250 mg/kg: Mus musculus, 6 hours, read-out: % Reduction vs Control
Experimental: Male ob/ob mice (50-55 grams; blood glucose ˜300 mg/dL) were divided into groups of five animals each, and given a single oral dose of test drug (250 mg/kg) suspended in 0.5% carboxymethylcellulose vehicle; a control group received oral vehicle alone.
Six hours after oral administration of test drugs or vehicle (control), blood samples were obtained from a tail vein and glucose content was determined with a glucometer.

[2] = system: ob/ob obese diabetic mice; experiment: Acute hypoglycemic effect in ob/ob obese diabetic mice: Experiment 1; assay type: in vivo
Experimental: Male ob/ob diabetic mice were randomized into groups of five animals each. Body weights were 50-55 g and blood glucose was approximately 300 mg/dL in the fed state. A single oral dose of a test substance suspended in 0.5% carboxymethylcellulose vehicle was administered by gavage. Blood glucose was measured in blood droplets obtained by nicking a tail vein with a razor using glucometer test strips and a Glucometer Elite XL device (Bayer) at 0, 0.5, 2, 4, 6 and 18 hours after the initial dosing. A 10% reduction in blood glucose versus oral vehicle is considered a positive screening result. Blood glucose reductions were generally maximal at 6 hours after drug administration.

db/db mice = experiment: Antidiabetic effects in db/db mice, 2 weeks (Example I); assay type: in vivo, C57BL/Ksola mice; details: for Glucose / Glucose (% of Control): nonfasting; for Free Fatty Acids ± SEM / Triglycerides ± SEM: serum
From the text: db/db mice have a defect in leptin signaling, leading to hyperphagia, obesity and diabetes. Moreover, unlike ob/ob mice on a C57BL/6J background, db/db mice on a C57BL/KS background undergo failure of their insulin-producing pancreatic islet β cells, resulting in progression from hyperinsulinemia (associated with peripheral insulin resistance) to hypoinsulinemic diabetes.
A minimum of 7 days was allowed for adaptation after arrival.
Treatment cohorts were given daily oral doses of (1% hydroxypropylmethylcellulose), Compounds BI, BO, BP, BQ or BR for 2 weeks. At the end of the treatment period 100 μl of venous blood was withdrawn in a heparinized capillary tube from the retro-orbital sinus of db/db mice for serum chemistry analysis.

[3] = system: high fat-fed C57Bl/6J mice; experiment: Circulating triglycerides, free fatty acids, insulin and leptin in high fat-fed C57Bl/6J mice; assay type: in vivo; details: for Free Fatty Acids / Triglycerides: after 2 weeks of drug treatments
From the text: The high fat-fed mouse is a model for the hypertriglyceridemia and high circulating fatty acid levels, and the insulin and leptin resistance that are found in people at risk for and with obesity, diabetes, cardiovascular disease and other disorders. Male C57Bl/6J mice, approximately 8 weeks of age, were randomly assigned into groups of 6 animals. […] Mice were fed a high-fat diet (diet number D12451, containing 45% of calories as fat (Research Diets, New Brunswick, N.J.)) for 6 weeks. […]

[4] = single oral dose by gavage, 6 hours

Compound: O=C(O)CCC(=O)c1ccc(OCc2ccccc2C(F)(F)F)cc1 [Compound AY, 4-(4-(2-Trifluoromethylbenzyloxy)phenyl)-4-oxobutyric acid]
- change in vivo at 250 mg/kg [1]: -39.3 ± 2.9%
- Blood Glucose after 6 hours [1]: 185 ± 21 mg/dL

Compound: Cc1ccc(C)c(COc2ccc(C(=O)CCC(=O)O)cc2)c1 [Compound AT, 4-(4-(2,5-Dimethylbenzyloxy)phenyl)-4-oxobutyric acid]
- change in vivo at 250 mg/kg [1]: -35.1 ± 2.3%
- Blood Glucose after 6 hours [1]: 198 ± 28 mg/dL

Compound: Cc1ccccc1COc1ccc(C(=O)CCC(=O)O)cc1 [Compound AL, 4-(4-(2-Methylbenzyloxy)phenyl)-4-oxobutyric acid]
- % Reduction vs Control [2, 4]: −43.4 ± 4.4%
- Blood Glucose after 6 hours [2, 4]: 168 ± 13 mg/dL

Compound: O=C(O)CCC(=O)c1ccc(OCc2ccc(F)cc2F)cc1 [Compound AV, 4-(4-(2,4-Difluorobenzyloxy)phenyl)-4-oxobutyric acid]
- change in vivo at 250 mg/kg [1]: -32.1 ± 3%
- Blood Glucose after 6 hours [1]: 207 ± 23 mg/dL

Compound: COc1cccc(OC)c1COc1cccc(C(=O)CCC(=O)O)c1 [BO, 4-(3-(2,6-Dimethoxybenzyloxy)phenyl)-4-oxobutyric acid]
- Glucose (db/db mice; 100 mg/kg daily oral): 586 ± 58 mg/dL
- Glucose (% of Control) (db/db mice; 100 mg/kg daily oral): 93 ± 9 % of Control
- Free Fatty Acids ± SEM (db/db mice; 100 mg/kg daily oral): 3766.3 ± 234.5 µM
- Triglycerides ± SEM (db/db mice; 100 mg/kg daily oral): 261.1 ± 24.3 mg/dL

Compound: Cc1cccc(C)c1COc1cccc(C(=O)CCC(=O)[O-])c1.[Na+] [Compound BL, 4-(3-(2,6-Dimethylbenzyloxy)phenyl)-4-oxobutyric acid Sodium salt]
- Free Fatty Acids ([3]; 10 mg/kg oral gavage): 1571.8 ± 100.9 µmol/L
- Triglycerides ([3]; 10 mg/kg oral gavage): 80 ± 12.2 mg/dL
- Free Fatty Acids ([3]; 30 mg/kg oral gavage): 1413.2 ± 228.7 µmol/L
- Triglycerides ([3]; 30 mg/kg oral gavage): 66.4 ± 13.7 mg/dL
- Free Fatty Acids ([3]; 100 mg/kg oral gavage): 1133.5 ± 132.7 µmol/L
- Triglycerides ([3]; 100 mg/kg oral gavage): 41 ± 5.6 mg/dL
- serum triglycerides and free fatty acids ([3]; oral gavage): effective at lowering
- insulin serum levels ([3]; oral gavage, after 4 weeks of drug treatments (FIG. 1)): effective at lowering
- leptin serum levels ([3]; oral gavage, after 4 weeks of drug treatments (FIG. 2)): effective at lowering

Compound: O=C(O)CCC(=O)c1ccc(OCc2ccccc2Cl)cc1 [Compound AI, 4-(4-(2-Chlorobenzyloxy)phenyl)-4-oxobutyric acid]
- % Reduction vs Control [2, 4]: −14.1 ± 3.0%
- Blood Glucose after 6 hours [2, 4]: 255 ± 9 mg/dL

Compound: O=C(O)CCC(=O)c1ccc(OCCc2ccccc2F)cc1 [Compound AJ, 4-(4-(2-(2-Fluorophenyl)ethoxy)phenyl)-4-oxobutyric acid]
- % Reduction vs Control [2, 4]: −36.0 ± 4.7%
- Blood Glucose after 6 hours [2, 4]: 190 ± 14 mg/dL

Compound: O=C(O)CCC(=O)c1ccc(OCC2CC2)cc1 [Compound AX, 4-(4-((Cyclopropyl)-methoxy)phenyl)-4-oxobutyric acid]
- change in vivo at 250 mg/kg [1]: -45.9 ± 2.4%
- Blood Glucose after 6 hours [1]: 165 ± 23 mg/dL

Compound: O=C(O)CCC(=O)c1ccc(OCc2cc(F)ccc2F)cc1 [Compound AU, 4-(4-(2,5-Difluorobenzyloxy)phenyl)-4-oxobutyric acid]
- change in vivo at 250 mg/kg [1]: -26.6 ± 2.8%
- Blood Glucose after 6 hours [1]: 224 ± 26 mg/dL

Compound: CCOC(=O)CCC(=O)c1ccc(OCc2c(F)cccc2F)cc1 [Compound AQ, Ethyl 4-(4-(2,6-difluorobenzyloxyl)phenyl)-4-oxobutyrate]
- change in vivo at 250 mg/kg [1]: -27.9 ± 4.2%
- Blood Glucose after 6 hours [1]: 220 ± 17 mg/dL

Compound: Cc1cccc(C)c1COc1cccc(C(=O)CC(C)(C)C(=O)O)c1 [BP, 4-(3-(2,6-Dimethylbenzyloxy)phenyl)-4-oxo-2,2-dimethylbutyric acid]
- Glucose (db/db mice; 100 mg/kg daily oral): 629 ± 86 mg/dL
- Glucose (% of Control) (db/db mice; 100 mg/kg daily oral): 99 ± 14 % of Control
- Free Fatty Acids ± SEM (db/db mice; 100 mg/kg daily oral): 3772.6 ± 182.5 µM
- Triglycerides ± SEM (db/db mice; 100 mg/kg daily oral): 302.1 ± 28.1 mg/dL

Compound: O=C(O)CCC(=O)c1ccc(OCc2ccccc2)cc1 [Compound AG, 4-(4-(Benzyloxy)phenyl)-4-oxobutyric acid]
- % Reduction vs Control [2, 4]: −25.3 ± 7.7%
- Blood Glucose after 6 hours [2, 4]: 222 ± 23 mg/dL

Compound: Cc1cccc(Nc2cc(Cl)nc(SCC(=O)O)n2)c1C [Wy14643, reference compound]
- Free Fatty Acids ([3]; 10 mg/kg oral gavage): 1512.2 ± 172.9 µmol/L
- Triglycerides ([3]; 10 mg/kg oral gavage): 70.6 ± 10.8 mg/dL
- Free Fatty Acids ([3]; 30 mg/kg oral gavage): 1676 ± 237 µmol/L
- Triglycerides ([3]; 30 mg/kg oral gavage): 88 ± 12.5 mg/dL
- Free Fatty Acids ([3]; 100 mg/kg oral gavage): 1839.8 ± 154.8 µmol/L
- Triglycerides ([3]; 100 mg/kg oral gavage): 88.4 ± 18.8 mg/dL

Compound: O=C(O)CCC(=O)c1c(F)cccc1F [Compound AS, 4-(2,6-Difluorophenyl)-4-oxobutyric acid]
- change in vivo at 250 mg/kg [1]: -45.2 ± 2%
- Blood Glucose after 6 hours [1]: 167 ± 28 mg/dL

Compound: O=C(O)CCC(=O)c1ccc(OCc2ccccn2)cc1 [Compound AF, 4-(4-((2-Pyridinyl)-methoxy)phenyl)-4-oxobutyric acid]
- Blood Glucose after 6 hours [2, 4]: 314 ± 32 mg/dL
- % Reduction vs Control ([2]; single oral dose, 6 hour reading normalized to initial blood glucose of this group, 416 ± 29 mg/dL): −24.6 ± 7.7 %

Compound: COc1ccccc1COc1ccc(C(=O)CCC(=O)O)cc1 [Compound AB, 4-(4-(2-Methoxybenzyloxy)phenyl)-4-oxobutyric acid]
- % Reduction vs Control [2, 4]: −39.1 ± 6.4%
- Blood Glucose after 6 hours [2, 4]: 181 ± 19 mg/dL

Compound: Cc1ccccc1COc1cccc(C(=O)CCC(=O)O)c1 [Compound AN, 4-(3-(2-Methylbenzyloxy)phenyl)-4-oxobutyric acid]
- change in vivo at 250 mg/kg [1]: -50.2 ± 4.5%
- Blood Glucose after 6 hours [1]: 152 ± 11 mg/dL

Compound: O=C(O)CCC(=O)c1ccc(OCCc2cccs2)cc1 [Compound AR, 4-(4-(2-(2-Thienyl)ethoxy)phenyl)-4-oxobutyric acid]
- change in vivo at 250 mg/kg [1]: -41.3 ± 4.2%
- Blood Glucose after 6 hours [1]: 179 ± 14 mg/dL

Compound: CCOC(=O)CCC(=O)c1ccc(OCc2ccccc2F)cc1 [Compound AK, Ethyl 4-(4-(2-fluorobenzyloxyl)phenyl)-4-oxobutyrate]
- % Reduction vs Control [2, 4]: −29.3 ± 3.4%
- Blood Glucose after 6 hours [2, 4]: 210 ± 10 mg/dL

Compound: O=C(O)CCC(=O)c1cccc(OCc2ccc(C(F)(F)F)cc2)c1 [BQ, 4-(3-(4-Trifluoromethylbenzyloxy)phenyl)-4-oxobutyric acid]
- Glucose (db/db mice; 100 mg/kg daily oral): 473 ± 49 mg/dL
- Glucose (% of Control) (db/db mice; 100 mg/kg daily oral): 75 ± 7 % of Control
- Free Fatty Acids ± SEM (db/db mice; 100 mg/kg daily oral): 2825.9 ± 110.9 µM
- Triglycerides ± SEM (db/db mice; 100 mg/kg daily oral): 131.6 ± 20.7 mg/dL

Compound: O=C(O)CCSCc1ccc(OCc2c(F)cccc2F)cc1 [Compound AZ, 3-[(4-(2,6-Difluorobenzyloxy)phenyl)-methylthio]propionic acid]
- change in vivo at 250 mg/kg [1]: -39 ± 6.1%
- Blood Glucose after 6 hours [1]: 186 ± 10 mg/dL

Compound: O=C(O)CCC(=O)c1cccc(OCC2CCC2)c1 [BR, 4-(3-((Cyclobutyl)-methoxy)phenyl)-4-oxobutyric acid]
- Glucose (db/db mice; 82 mg/kg daily oral): 703 ± 64 mg/dL
- Glucose (% of Control) (db/db mice; 82 mg/kg daily oral): 111 ± 10 % of Control
- Free Fatty Acids ± SEM (db/db mice; 82 mg/kg daily oral): 3653.4 ± 207.5 µM
- Triglycerides ± SEM (db/db mice; 82 mg/kg daily oral): 253.0 ± 32.0 mg/dL
